{"source": "paper PMC12030043", "about": "“Preparation and Therapeutic Evaluation of Engineered Semaglutide and Statin–Lipid Conjugate-Based Nanoparticle” (Pharmaceutics, 2025)", "key": {"[1]": {"test": "Zeta potential measurement", "format": "physicochemical", "details": "Zetasizer Nano; RLC alone and semaglutide–RLC (1:10) formulation; mean ± S.D.", "experimental": "To determine the optimal formulation and final composition of the semaglutide–RLC nanoparticles (SRLC NPs), a precipitation evaluation experiment was conducted using various mass ratios (1:10, 1:20, 1:30, w/w) of semaglutide to RLC. Based on stability and particle size analysis, the 1:10 ratio was selected as the optimal formulation, and this ratio was maintained in the final product composition to ensure consistency in therapeutic efficacy and physicochemical properties. The resulting mixture was used immediately without undergoing a separate freeze-drying process. For nanoparticle preparation, semaglutide ([…]) was dissolved in 1 mL of DW, while RLC ([…]) was dissolved in 1 mL of DMSO. […] The stability of each formulation was assessed by measuring particle size at multiple time points (0, 0.5, 1, 2, 3, 4, and 5 days) using dynamic light scattering (DLS; Zetasizer Nano, Malvern Instruments, Worcestershire, UK). The zeta potential of both RLC alone and the semaglutide–RLC (1:10) formulation was also measured to evaluate the surface charge and colloidal stability of the nanoparticles. Additionally, in vivo stability was evaluated by preparing 1 mL of Dulbecco’s phosphate-buffered saline (DPBS) containing 10% fetal bovine serum (FBS) and 5% DMSO, followed by particle size measurements at different time points (0, 0.5, 1, and 2 days). […]"}, "[2]": {"system": "high-fat diet (HFD)-fed mouse model", "test": "Histopathology (H&E and oil red O staining) of liver and adipose tissue in HFD-fed mice", "format": "in vivo, C57BL/6 mice", "experimental": "All animal experiments were conducted under the standard regulations of the Institutional Animal Care and Use Committee (IACUC) at Konkuk University (ref. no. KU22078-1). The animals were housed in a controlled environment with regulated temperature and humidity, maintained under a 12 h light–dark cycle. Obesity was induced in 5-week-old male C57BL/6 mice through dietary control for 69 days. A total of 25 mice were used and divided into five experimental groups: negative control (regular diet, RD), positive control (high-fat diet, HFD), RO (0.5 mg/kg), RLC (1 mg/kg), and SRLC NPs (1.1 mg/kg). The RO dose was set at half that of RLC due to its molecular weight being approximately twice that of RLC, ensuring equivalent molar exposure. Additionally, the SRLC NP dose was adjusted to 1.1 mg/kg as it comprised 1 mg of RLC and 0.1 mg of semaglutide, allowing for the accurate comparison of therapeutic effects. While the RD group received a normal diet, the other groups were fed a high-fat diet (HFD) consisting of 60 kcal% fat (D12492, Research Diets, New Brunswick, NJ, USA). The body weights of the mice were measured weekly. Starting from day 28 of the dietary intervention, each group received their respective substances via subcutaneous injection every three days. Five days before the end of the experiment, an oral glucose tolerance test (OGTT) was conducted to assess glucose sensitivity. After 19 h of fasting, all experimental groups were administered a glucose solution orally (2 g/kg). Blood glucose levels were then measured at time intervals of 0, 15, 30, 60, 90, 120, and 180 min (n = 3). Blood glucose levels were assessed using a glucometer (G CARE, GC Medical Science, Yongin, Republic of Korea). On the final day of the experiment, after 14 h of fasting, the mice were anesthetized via intraperitoneal administration of 2,2,2-tribromoethanol (TBE), and blood samples were collected. Hepatotoxicity and lipid profiling analyses were conducted using the collected blood samples, while liver tissues were subjected to hematoxylin and eosin (H&E) and oil red O (ORO) staining for further evaluation. All analyses were performed by KP&T Technology (Cheongju, Republic of Korea).\nRepresentative images of mice from the HFD group and the SRLC NPs-treated group on the final day of the experiment are shown in Figure 9A. To evaluate the pathological changes at the tissue level and the therapeutic effects of SRLC NPs, hematoxylin and eosin (H&E) staining and oil red O (ORO) staining were performed (Figure 9B). These staining analyses were conducted to confirm the reduction in hepatic fat accumulation and assess adipose tissue remodeling following SRLC NPs treatment. […] The area of the adipocyte in sWAT (n = 4) was as follows: HFD, 78.86 ± 1.38%; RO, 77.51 ± 2.52%; RLC, 72.72 ± 2.75%; and SRLC NPs, 47.45 ± 1.03% (Figure 9E). The diameter of the adipocyte in eWAT (n = 7) was the following: HFD, 64.12 ± 12.51 µm; RO, 59.53 ± 6.42 µm; RLC, 57.01 ± 7.04 µm; and SRLC NPs, 33.79 ± 3.62 µm (Figure 9F). The area of the adipocyte in eWAT (n = 4) was as follows: HFD, 76.44 ± 1.91%; RO, 79.30 ± 1.91%; RLC, 79.223 ± 1.53%; and SRLC NPs, 63.28 ± 2.94% (Figure 9G)."}}, "data": [{"smiles": "CC(C)c1nc(N(C)S(C)(=O)=O)nc(-c2ccc(F)cc2)c1C=CC(O)CC(O)CC(=O)NCCNC(=O)CCC(C)C1CCC2C3C(O)CC4CC(O)CCC4(C)C3CCC12C", "note": "(stereo not drawn) [RLC]", "values": [{"measurement": "zeta potential", "setting": "[1]", "result": "−22.08 ± 0.48", "unit": "mV"}, {"measurement": "lipid staining and fat droplet accumulation in liver tissue (in words)", "setting": "[2]; H&E and ORO staining, RO 0.5, RLC 1, SRLC NPs 1.1 mg/kg s.c.", "result": "abnormal fat droplet accumulation"}, {"measurement": "diameter of the adipocyte in sWAT", "setting": "[2]; H&E, HFD group 60.32 ± 6.95 µm, mean ± S.D., n = 7", "result": "49.79 ± 7.09", "unit": "µm"}, {"measurement": "diameter of the adipocyte in eWAT", "setting": "[2]; H&E, HFD group 64.12 ± 12.51 µm, mean ± S.D., n = 7", "result": "57.01 ± 7.04", "unit": "µm"}, {"measurement": "area of the adipocyte in sWAT", "setting": "[2]; H&E, HFD group 78.86 ± 1.38%, mean ± S.D., n = 4", "result": "72.72 ± 2.75", "unit": "%"}, {"measurement": "quantification of ORO staining", "setting": "[2]; liver tissue, HFD group = 100.00 ± 15.00%, RO 0.5, RLC 1, SRLC NPs 1.1 mg/kg s.c., mean ± S.D., n = 4", "result": "49.50 ± 9.53", "unit": "%"}]}]}
